In the assay the test system is P388 leukemia ip, CD2F1 mice, survival T/C. The assay is described as follows: NCI In Vivo Anticancer Drug Screen. Data for tumor model P388 Leukemia (intraperitoneal) in CD2F1 (CDF1) mice. The following applies: endpoint: median survival time, higher = longer survival. The procedure, abridged: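 Mice carrying the transplanted tumor received test compound or vehicle. Survival was recorded in each group, and the value is the treated-group measurement divided by that of the vehicle-treated control group.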

Where [1] appears, read: dose: 100.0 mg/kg/injection, schedule: Q04DX003 (ip), vehicle: Klucel (hydroxypropylcellulose) (HPC).
Setting [2] is: dose: 200.0 mg/kg/injection, schedule: Q04DX003 (ip), vehicle: Klucel (hydroxypropylcellulose) (HPC).
Setting [3] is: dose: 50.0 mg/kg/injection, schedule: Q01DX005 (ip), vehicle: saline with Tween-80.
Where [4] appears, read: dose: 100.0 mg/kg/injection, schedule: Q01DX005 (ip), vehicle: saline with Tween-80.
The mark [5] stands for this setting: dose: 200.0 mg/kg/injection, schedule: Q01DX005 (ip), vehicle: saline with Tween-80.
[6] abbreviates: dose: 50.0 mg/kg/injection, schedule: Q01DX009 (ip), vehicle: saline with Tween-80.
The mark [7] stands for this setting: dose: 100.0 mg/kg/injection, schedule: Q01DX009 (ip), vehicle: saline with Tween-80.
Setting [8] is: dose: 200.0 mg/kg/injection, schedule: Q01DX009 (ip), vehicle: saline with Tween-80.
Setting [9] is: dose: 60.0 mg/kg/injection, schedule: Q01DX005 (ip), vehicle: saline with Tween-80.

Each structure is given as a SMILES string. Several values for one entry are separate records, joined by “and”; a condition that tells them apart may be missing. Identical values can stand only once. Inconclusive results and toxic doses are left out.

For `CC1N(C)c2cc3[nH]c(=O)cc(C(F)(F)F)c3cc2C1(C)C` (stereo not given), the T/C (dose: 100.0 mg/kg/injection, schedule: Q01DX001 (ip), vehicle: Klucel (hydroxypropylcellulose) (HPC)) was 92 % of control and 96 % of control; the T/C (dose: 200.0 mg/kg/injection, schedule: Q01DX001 (ip), vehicle: Klucel (hydroxypropylcellulose) (HPC)) was 103 % of control and 94 % of control; the T/C (dose: 400.0 mg/kg/injection, schedule: Q01DX001 (ip), vehicle: Klucel (hydroxypropylcellulose) (HPC)) is 121 % of control.

Turning to `Cc1cc(N=NC(N)=S)c2ccccc2c1O`, the T/C runs as follows: (dose: 25.0 mg/kg/injection, schedule: Q04DX003 (ip), vehicle: Klucel (hydroxypropylcellulose) (HPC)) 100 % of control; (dose: 50.0 mg/kg/injection, schedule: Q04DX003 (ip), vehicle: Klucel (hydroxypropylcellulose) (HPC)) 97 % of control; under setting [1], 102 % of control; under setting [2], 100 % of control.

Regarding `Nc1ncc2nc3c4ccccc4c(=O)cc-3oc2n1`, the T/C was 96 % of control under setting [3], 96 % of control under setting [4] and 91 % of control under setting [5].

Consider `CN1CCC/C1=C/C(=O)c1ccc(Cl)cc1`, for which the T/C is 102 % of control and 98 % of control (dose: 100.0 mg/kg/injection, schedule: Q04DX003 (ip), vehicle: saline); 111 % of control and 120 % of control (dose: 200.0 mg/kg/injection, schedule: Q04DX003 (ip), vehicle: saline); 92 % of control (dose: 400.0 mg/kg/injection, schedule: Q04DX003 (ip), vehicle: saline).

`CNC(=O)Oc1ccc(/C=N/Sc2cccc([N+](=O)[O-])c2)cc1`: the T/C was 101 % of control under setting [6] and 89 % of control under setting [7].

Regarding `c1ccc(CCn2cccc/c2=N/C(=NC2CCCCC2)NC2CCCCC2)cc1`, the T/C (dose: 100.0 mg/kg/injection, schedule: Q01DX001 (ip), vehicle: suspension in saline) was 91 % of control; the T/C (dose: 200.0 mg/kg/injection, schedule: Q01DX001 (ip), vehicle: suspension in saline) is 88 % of control; the T/C (dose: 400.0 mg/kg/injection, schedule: Q01DX001 (ip), vehicle: suspension in saline) is 92 % of control.

With `COc1ccc(C(Br)C(C)Br)cc1` (stereo not given), the T/C is 104 % of control under setting [6], 90 % of control under setting [7] and 95 % of control under setting [8].

For the compound `[CH3][Bi]1[O]C(=O)c2ccccc2[S]1`, the T/C (dose: 25.0 mg/kg/injection, schedule: Q01DX005 (ip), vehicle: Klucel (hydroxypropylcellulose) (HPC)) is 99 % of control and 102 % of control and 97 % of control.

On to `O=S(=O)(O)O.[NH-]CCC[NH-].[Pt+2]`, for which the T/C (dose: 6.25 mg/kg/injection, schedule: Q04DX002 (ip), vehicle: saline) was 168 % of control and the T/C (dose: 12.5 mg/kg/injection, schedule: Q04DX002 (ip), vehicle: saline) was 158 % of control.

`N#CC1CCC(c2ccccc2)(c2ccccc2)C1=O` (stereo not given): the T/C by setting is: under setting [1], 94 % of control; under setting [2], 95 % of control.

For `C=C(C)COc1ccc(C)cc1`, the T/C (dose: 25.0 mg/kg/injection, schedule: Q01DX009 (ip), vehicle: other) is 108 % of control; the T/C (dose: 50.0 mg/kg/injection, schedule: Q01DX009 (ip), vehicle: other) was 104 % of control; the T/C (dose: 100.0 mg/kg/injection, schedule: Q01DX009 (ip), vehicle: other) was 110 % of control.

In the case of `CN(C)P1(=O)OCC(C)(C)CN1c1ccccc1` (stereo not given), the T/C by setting is: (dose: 100.0 mg/kg/injection, schedule: Q04DX002 (ip), vehicle: saline) 96 % of control; (dose: 200.0 mg/kg/injection, schedule: Q04DX002 (ip), vehicle: saline) 95 % of control; (dose: 400.0 mg/kg/injection, schedule: Q04DX002 (ip), vehicle: saline) 100 % of control.

As to `N#CCCn1nc(SCc2ccccc2)c(=O)[nH]c1=O`, the T/C is, setting by setting: under setting [3], 95 % of control; under setting [4], 94 % of control; under setting [5], 92 % of control.

With `CCCn1c2nc(=O)n(C)c(=O)c-2cc2ccccc21`, the T/C is 105 % of control (dose: 10.0 mg/kg/injection, schedule: Q01DX009 (ip), vehicle: saline with Tween-80); 116 % of control (dose: 20.0 mg/kg/injection, schedule: Q01DX009 (ip), vehicle: saline with Tween-80); 111 % of control (dose: 40.0 mg/kg/injection, schedule: Q01DX009 (ip), vehicle: saline with Tween-80).

As for `CC(O)(Cc1ccccc1)c1ccccc1` (stereo not given), the T/C is 100 % of control (dose: 100.0 mg/kg/injection, schedule: Q04DX003 (ip), vehicle: saline with Tween-80); 104 % of control (dose: 200.0 mg/kg/injection, schedule: Q04DX003 (ip), vehicle: saline with Tween-80); 109 % of control (dose: 400.0 mg/kg/injection, schedule: Q04DX003 (ip), vehicle: saline with Tween-80).

On to `COC(=O)/C=C(\CCl)N=[N+]=[N-]`, for which the T/C is, setting by setting: under setting [9], 108 % of control; (dose: 120.0 mg/kg/injection, schedule: Q01DX005 (ip), vehicle: saline with Tween-80) 109 % of control; (dose: 240.0 mg/kg/injection, schedule: Q01DX005 (ip), vehicle: saline with Tween-80) 107 % of control.

With `OCCN(CCO)Cc1nc2ccc(Cl)cc2[nH]1`, the T/C by setting is: (dose: 50.0 mg/kg/injection, schedule: Q01DX005 (ip), vehicle: saline) 98 % of control; (dose: 100.0 mg/kg/injection, schedule: Q01DX005 (ip), vehicle: saline) 91 % of control; (dose: 200.0 mg/kg/injection, schedule: Q01DX005 (ip), vehicle: saline) 95 % of control.

`c1cc(C2=NCCN2)ccc1Nc1ccc(-c2cc3ccc(C4=NCCN4)cc3[nH]2)cc1`: the T/C was 150 % of control and 165 % of control (dose: 3.75 mg/kg/injection, schedule: Q01DX005 (ip), vehicle: Klucel (hydroxypropylcellulose) (HPC)); 154 % of control and 177 % of control (dose: 7.5 mg/kg/injection, schedule: Q01DX005 (ip), vehicle: Klucel (hydroxypropylcellulose) (HPC)).

For the compound `[CH3][Sn]([CH3])([CH3])[N]=C=[N][Sn]([CH3])([CH3])[CH3]`, the T/C was 100 % of control (dose: 0.4 mg/kg/injection, schedule: Q01DX005 (ip), vehicle: saline) and 101 % of control (dose: 0.8 mg/kg/injection, schedule: Q01DX005 (ip), vehicle: saline).

As for `C=C(CN(C)C)C(=O)c1ccc(OC)cc1OC`, the T/C was 95 % of control (dose: 1.9 mg/kg/injection, schedule: Q04DX002 (ip), vehicle: saline); 106 % of control (dose: 3.8 mg/kg/injection, schedule: Q04DX002 (ip), vehicle: saline); 102 % of control and 98 % of control (dose: 7.5 mg/kg/injection, schedule: Q04DX002 (ip), vehicle: saline).

With `CC1(C)C=Cc2c(O)c(C(=O)/C=C/c3ccccc3)c3c(c2O1)C=CC(C)(C)O3`, the T/C is 100 % of control (dose: 5.25 mg/kg/injection, schedule: Q01DX005 (ip), vehicle: Klucel (hydroxypropylcellulose) (HPC)); 95 % of control (dose: 10.5 mg/kg/injection, schedule: Q01DX005 (ip), vehicle: Klucel (hydroxypropylcellulose) (HPC)); 97 % of control (dose: 21.0 mg/kg/injection, schedule: Q01DX005 (ip), vehicle: Klucel (hydroxypropylcellulose) (HPC)); 86 % of control (dose: 42.0 mg/kg/injection, schedule: Q01DX005 (ip), vehicle: Klucel (hydroxypropylcellulose) (HPC)).

`[N-]=[N+]=NCC(O)COc1c2ccccc2nc2ccccc12` (stereo not given): the T/C (dose: 15.0 mg/kg/injection, schedule: Q01DX005 (ip), vehicle: saline with Tween-80) was 95 % of control; the T/C (dose: 30.0 mg/kg/injection, schedule: Q01DX005 (ip), vehicle: saline with Tween-80) is 99 % of control; the T/C under setting [9] was 112 % of control.

On to `Cc1ccc2c(c1)nc1cc3c(cc1n2C1CCCCC1)c(Cl)c(=O)c1ccccc13`, for which the T/C reads like this: under setting [6], 92 % of control; under setting [7], 92 % of control; under setting [8], 98 % of control.

For `O=C(CCOCCCOCCC(=O)OCCCBr)OCCCBr`, the T/C is, setting by setting: (dose: 50.0 mg/kg/injection, schedule: Q01DX005 (ip), vehicle: Klucel (hydroxypropylcellulose) (HPC)) 102 % of control; (dose: 100.0 mg/kg/injection, schedule: Q01DX005 (ip), vehicle: Klucel (hydroxypropylcellulose) (HPC)) 98 % of control; (dose: 200.0 mg/kg/injection, schedule: Q01DX005 (ip), vehicle: Klucel (hydroxypropylcellulose) (HPC)) 98 % of control.

For the compound `Cn1c(=O)c2nc(-c3ccccc3)nnc2n(CCO)c1=O`, the T/C was 105 % of control (dose: 100.0 mg/kg/injection, schedule: Q04DX002 (ip), vehicle: Klucel (hydroxypropylcellulose) (HPC)); 106 % of control (dose: 200.0 mg/kg/injection, schedule: Q04DX002 (ip), vehicle: Klucel (hydroxypropylcellulose) (HPC)); 110 % of control (dose: 400.0 mg/kg/injection, schedule: Q04DX002 (ip), vehicle: Klucel (hydroxypropylcellulose) (HPC)).
